Results from US8357786B2, “Method for preparing Gynostemma pentaphyllum extract with increasing damulin A and damulin B contents, and pharmaceutical compositions of the same for treating metabolic disease” (TG Biotech Co., Ltd., priority 2009, dated 2013).

Key:
Assay type in all cases: cell-based
[1] = system: ACC (acetyl-CoA carboxylase); experiment: Phosphorylation of ACC (Ser-79) in L6 myotube cells, western blot; details: 2 hours, damulin A 10, 30, 60 μg/ml, damulin B 1, 5, 10 μg/ml, compared to control group
Source text: ACC is an important enzyme for regulating lipid metabolism in liver and muscle tissues. This enzyme carboxylates acetyl-CoA to produce malonyl-CoA. Malonyl-CoA is the most important factor for regulating β-oxidation of fatty acid within mitochondria. When the concentration of malonyl-CoA increases, the activity of CPT-1 (carnitine palmitoyl-CoA transferase) in mitochondrial membrane is reduced, thereby inhibiting β-oxidation of fatty acid, and on the other hand, when the concentration of malonyl-CoA decreases, β-oxidation is increased, accelerating the reduction of body fat. ACC is a subordinate target protein in AMPK activity, and is phosphorylated by the activation of AMPK. […]
Accordingly, differentiated L6 myotube cells were treated with individually separated damulin A with different concentrations (10, 30, and 60 μg/ml), and treated with individually separated damulin B with different concentrations (1, 5, and 10 μg/ml), for 2 hours. The increased extent of the phosphorylation of a threonine residue at (Thr)-172 of AMPK α subunit, and a serine residue at Ser-79 of an ACC enzyme protein was analyzed through western blot analysis according to the method of Hwang, et al. (Biochem. Biophys. Res. Commun. 371, 289-293, 2008). […] Also, both damulin A and damulin B were determined to be active ingredients which phosphorylate and activate AMPK, and phosphorylate and inactivate ACC. […]

[2] = system: L6 myotube cells; experiment: β-oxidation of fatty acid in L6 myotube cells
Protocol: When AMPK is activated, the activity of ACC is reduced, thereby reducing the concentration of malonyl-CoA within mitochondria. This accelerates the transport of fatty acid into mitochondria, and thereby increases β-oxidation. Thus, due to the reduction of body fat, an obesity inhibiting effect can be achieved. Cultured L6 myotube cells were treated with purely separated damulin A and damulin B, and the improving effect on β-oxidation of fatty acid was analyzed by the method of Hwang, et al. (Biochem. Biophys. Res. Commun. 377, 1253-1258).
As a result, it was observed that damulin A (30 μg/ml) and damulin B (5 μg/ml) increased β-oxidation of fatty acid 1.8 times and 2.6 times (see FIG. 5).

[3] = system: L6 myotube cells; experiment: 2-DG (glucose) absorption into L6 myotube cells
Source text: It is well known that the activation of AMPK also increases the glucose absorption into cells, and thus causes a blood glucose level reducing effect (Hardie, et al., FEBS Lett. 546, 113-120, 2003; Carling, et al., Trends. Biochem. Sci. 29, 18-24, 2004; Kahn, et al., Cell Metab. 1, 15-25, 2005; Cool, et al., Cell Metab. 3. 403-416, 2006; Lee et al., Diabetes, 55, 2256-2264, 2006; Hwang et al., Biochem. Biophys. Res. Commun. 371, 289-293, 2008). Accordingly, the treatment of damulin A and damulin B on L6 myotube cells was carried out to determine the influence on the glucose absorption into cells.
To cultured L6 myotube cells, high concentration glucose was added together with 2-DG (2-deoxy-[3H]D-glucose) (a radioactive isotope that is not decomposed within a cell) according to the method of Hwang et al. (Biochem. Biophys. Res. Commun. 377, 1253-1258), and then the accelerated extent of 2-DG absorption into cells by damulin A (30 μg/ml) and damulin B (5 μg/ml) was analyzed. As a result, in the damulin A-treated cells, the capability of absorbing glucose was increased by 42% on the average, and in the damulin B-treated cells, the capability was increased by about 79% (see FIG. 6). Therefore, based on the result, both damulin A and damulin B are determined to have a high anti-diabetes effect by decreasing blood glucose level.

[4] = system: AMPK; experiment: Phosphorylation of AMPK (Thr-172 of α subunit) in L6 myotube cells, western blot; details: 2 hours, damulin A 10, 30, 60 μg/ml, damulin B 1, 5, 10 μg/ml, compared to control group
Source text: The activity of AMPK may be determined by determining whether or not the phosphorylation of a threonine amino acid residue at position 172 was increased.

| Structure (SMILES) | phosphorylation of serine residue Ser-79 of ACC [1] | increase of β-oxidation of fatty acid ([2]; 5 μg/ml) [times] | increase of capability of absorbing glucose (2-DG absorption into cells) ([3]; 5 μg/ml) | phosphorylation of threonine residue (Thr)-172 of AMPK α subunit [4] | increase of β-oxidation of fatty acid ([2]; 30 μg/ml) [times] | increase of capability of absorbing glucose (2-DG absorption into cells) ([3]; 30 μg/ml) [%] |
| --- | --- | --- | --- | --- | --- | --- |
| C=C(CCC=C(C)C)[C@H]1CC[C@]2(C)C1[C@H](O)CC1[C@@]3(C)C[C@@H](O)[C@H](OC4OC(CO)[C@@H](O)[C@H](O)[C@@H]4OC4OC(CO)[C@@H](O)[C@H](O)[C@@H]4O)C(C)(C)C3CC[C@]12C (stereo partly drawn) [damulin B, 2α,3β,12β-trihydroxydammara-20,24-diene-3-O-[β-D-glucopyranosyl-(1→)-β-D-glucopyranoside]] | concentration-dependently increased the phosphorylation | 2.6 | about 79% | concentration-dependently increased the phosphorylation |  |  |
| CC(C)=CC/C=C(/C)[C@H]1CC[C@]2(C)C1[C@H](O)CC1[C@@]3(C)C[C@@H](O)[C@H](OC4OC(CO)[C@@H](O)[C@H](O)[C@@H]4OC4OC(CO)[C@@H](O)[C@H](O)[C@@H]4O)C(C)(C)C3CC[C@]12C (stereo partly drawn) [damulin A, 2α,3β,12β-trihydroxydammar-20(22)-E,24-diene-3-O-[β-D-glucopyranosyl-(1→)-β-D-glucopyranoside]] | concentration-dependently increased the phosphorylation |  |  | concentration-dependently increased the phosphorylation | 1.8 | 42 |
